Source: ChEMBL document CHEMBL1140851, “Synthesis of new amonafide analogues via coupling reaction and their cytotoxic evaluation and DNA-binding studies” (Bioorg Med Chem, 2009)
Blank lines part the entries; values can stand above or below the compound they belong to. The source made the active and inactive calls. The calls are words filed in the database; no cut-off is given here.

Columns and labels:
[1] = test system: DNA; assay: Binding affinity to calf thymus DNA assessed as circular dichroism at 10 uM; assay type: nucleic-acid assay; details: Bos taurus
[2] = test system: DNA; assay: Binding affinity to calf thymus DNA assessed as hypochromicity at 50 uM by UV-vis absorption spectra; assay type: nucleic-acid assay; details: Bos taurus
[3] = Cytotoxicity against mouse P388D1 cells after 48 hrs by MTT assay; assay type: functional, cell-based; details: P388D1, 48 h
[4] = test system: HeLa; assay: Cytotoxicity against human HeLa cells after 48 hrs by MTT assay; assay type: functional, cell-based
[5] = test system: DNA; assay: Binding affinity to calf thymus DNA assessed as Scatchard binding constant by fluorescence quenching technique; assay type: nucleic-acid assay; details: Bos taurus
[6] = test system: DNA; assay: Binding affinity to calf thymus DNA assessed as increase in viscosity of DNA by viscometric titration; assay type: nucleic-acid assay; details: Bos taurus

Activity [1]: Active | Activity [2]: Active | Kb [5]: 2.48 ×10⁵ /M | Activity [6]: Active
Compound: CN(C)CCN1C(=O)c2cccc3cc(N4CCN(C)CC4)cc(c23)C1=O
IC50 [3]: 1930 nM | IC50 [4]: 430 nM

Kb [5]: 0.79 ×10⁵ /M
Compound: CN(C)CCN1C(=O)c2cccc3cc(N4CCSCC4)cc(c23)C1=O
IC50 [3]: 36300 nM | IC50 [4]: 2340 nM

Kb [5]: 0.85 ×10⁵ /M
Compound: CN(C)CCN1C(=O)c2cccc3cc(N4CCCCC4)cc(c23)C1=O
IC50 [3]: 21600 nM | IC50 [4]: 2640 nM

Kb [5]: 1.06 ×10⁵ /M
Compound: CN(C)CCN1C(=O)c2cccc3cc(NCc4cccs4)cc(c23)C1=O
IC50 [3]: 9460 nM | IC50 [4]: 3540 nM

Activity [1]: Active | Activity [2]: Active | Kb [5]: 1.85 ×10⁵ /M | Activity [6]: Active
Compound: CN(C)CCNc1cc2c3c(cccc3c1)C(=O)N(CCN(C)C)C2=O
IC50 [3]: 620 nM | IC50 [4]: 830 nM

More lines, now with the values behind:

Compound: CN(C)CCCNc1cc2c3c(cccc3c1)C(=O)N(CCN(C)C)C2=O
IC50 [3]: 710 nM | IC50 [4]: 230 nM | Kb [5]: 1.75 ×10⁵ /M

Compound: CN(C)CCN1C(=O)c2cccc3cc(N)cc(c23)C1=O [AMONAFIDE]
IC50 [3]: 6020 nM | IC50 [4]: 680 nM | Kb [5]: 1.05 ×10⁵ /M

Compound: CN(C)CCN1C(=O)c2cccc3cc(N4CCOCC4)cc(c23)C1=O
IC50 [3]: 9440 nM | IC50 [4]: 530 nM | Kb [5]: 0.97 ×10⁵ /M

Compound: CCCCNc1cc2c3c(cccc3c1)C(=O)N(CCN(C)C)C2=O
IC50 [3]: 9420 nM | IC50 [4]: 3240 nM | Kb [5]: 1.23 ×10⁵ /M
